Assay [1] has as its target T1, IL-6Rα in different cell lines (Homo sapiens, UniProt P08887).
T1 construct: all membrane-type IL-6Rα-expressing cell lines; endogenous in cells
T1 sequence (P08887 20-468): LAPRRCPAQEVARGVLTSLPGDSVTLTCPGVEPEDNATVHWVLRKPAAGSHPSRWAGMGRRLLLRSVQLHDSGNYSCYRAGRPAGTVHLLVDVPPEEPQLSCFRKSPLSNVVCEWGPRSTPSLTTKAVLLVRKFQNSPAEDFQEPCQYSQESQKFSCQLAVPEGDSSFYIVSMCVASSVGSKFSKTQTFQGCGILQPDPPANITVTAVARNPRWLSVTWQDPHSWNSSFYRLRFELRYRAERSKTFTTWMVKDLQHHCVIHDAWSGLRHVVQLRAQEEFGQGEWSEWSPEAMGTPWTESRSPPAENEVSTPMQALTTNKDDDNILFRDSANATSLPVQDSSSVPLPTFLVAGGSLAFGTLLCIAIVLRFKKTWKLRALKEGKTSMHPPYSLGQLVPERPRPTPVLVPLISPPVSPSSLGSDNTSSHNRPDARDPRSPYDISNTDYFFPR
Put plainly: In vitro competition assay of synthetic peptides on cell lines. It is filed as cell-based. As to conditions: synthetic peptide; FIG. 3. The protocol: The binding affinities to IL-6Rα of the 7 independent peptide sequences of the IR-6Rα-binding clones selected from phage display peptide library (Table 1) were confirmed. The phage clones with the inserted DNA encoding these 7 different peptide sequences (phage S1˜S7) were added into IL-6Rα coated 96-well cell culture plates (10^12 pfu/ml) and incubated with IL-6Rα for 1 hour. IL-6 protein (50 ng/ml, 100 μl) was added to the wells and incubated at room temperature for 2 hours. The plates were thoroughly washed with 0.1% BSA (bovine serum albumin)/PBS (phosphate-buffered saline) buffer (pH 8.5). Finally, biotin-conjugated anti-IL-6 monoclonal antibody, horseradish peroxidase (HRP)-conjugated streptavidin and tetramethyl benzidine (TMB) substrate solution were used to perform the known phage Enzyme-Linked Immunosorbent Assay (ELISA) to determine the L-6 protein bound to the cell plates.
Oligopeptides encoded by the inserted DNA in phages S7 and S1 (labeled as ‘peptide S7’ (SEQ ID NO: 7) or ‘peptide S1’ (SEQ ID NO: 1) hereafter) were produced by the known peptide synthesis method. The binding assay described in Example 1 was carried out, but using peptide S7 or peptide S1 (negative control) instead of phage clones, and using cell lines instead of IL-6Rα to perform competition assay and get the result shown in FIG. 3.

Assay [2] has as its system Ras/MAPK and PI3-K/Akt signaling pathways. Put plainly: Western blot of IL-6-induced Akt and ERK1/2 phosphorylation in C33A cells. It is filed as cell-based, human. As to conditions: IL-6 50 ng/mL, peptide 50 μmol/L, FIG. 4A. The protocol:
(§1) 80% confluent C33A cells were starved for 24 hours and then treated with human IL-6 protein (50 ng/mL) in the presence or absence of S1 peptide (50 μmol/L) or S7 peptide (50 μmol/L). Cell lysates were obtained and subjected to SDS-PAGE separation and Western blot analysis using various antibodies for immunoblotting, such as anti-phospho-ERK1/2, anti-phospho-Akt, anti-ERK1/2, and anti-Akt.

The next assay has as its system Mcl-1 protein. As to the kind of experiment: Western blot of IL-6-induced Mcl-1 protein in C33A cells. The class given is cell-based, human. As to conditions: FIG. 4B. As for the experimental part:
as §1
Equal amounts of cell lysates (75 μg) were resolved by SDS-PAGE, transferred to polyvinylidene difluoride membranes, and probed with specific anti-Mcl-1 antibodies as described above. β-actin served as the internal loading control to get the result shown in FIG. 4A.

For a further assay, the system named is VEGF-A. As to the kind of experiment: VEGF-A secretion, quantitative sandwich ELISA of conditioned medium. It is filed as cell-based. As to conditions: C33A, RPMI 8226 and BCC cells (all three cell lines); 24 hours; FIG. 5. As for the experimental part:
(§2) C33A cervical cancer cells, RPMI 8226 multiple myeloma cells and basal cell carcinoma (BCC) cells, vectors (negative control) were cultivated respectively in DMEM containing 10% FBS, penicillin (100 units/ml), and streptomycin (100 μg/mL) as well as IL-6 protein. At 90% confluence, culture medium was replaced with serum-free medium. IL-6 containing C33A cells were incubated with S1 or S7 peptide for another 24 hours. Conditioned medium (CM) was collected after centrifugation of cellular debris.
The conditioned medium (CM) was concentrated using an Amicon ultracentrifugation device (Millipore). The concentrations of VEGF-A in culture supernatants were determined with quantitative sandwich ELISA assay according to the manufacturer's instruction. Briefly, cell supernatant (50 μl) was incubated with 50 μl of assay diluents for 2 hours at room temperature in a 96-well tissue culture plate coated with monoclonal antibodies against VEGF-A. After five consecutive washes, a conjugate consisting of polyclonal VEGF-A antibodies and HRP was added. The mixture was incubated for 2 hours at room temperature. Following the subsequent addition of a color reagent, absorbance was read at 450 nm using a Thermo-Max microplate reader (Molecular Devices Co., Menlo Park, Calif.).

The test system of assay [3] is HUVECs. Put plainly: HUVEC proliferation induced by IL-6-CM, trypan blue exclusion. The class given is cell-based, human. Conditions: CM from IL-6-overexpressed cells; 24 hours; FIG. 6. As for the experimental part: as §2
HUVECs were plated onto six-well dishes (Falcon, Becton Dickinson) at a concentration of 2.5×10^5 cells per well in M199 medium supplemented with 10% FBS. One day after seeding, HUVECs were stimulated with CM from cells treated in various ways respectively, where the CM was mixed with M199 medium. Twenty-four hours later, the viable cells were counted using a trypan blue exclusion method.
For the trypan blue exclusion assay, cells were washed with PBS, trypsinized, and then resuspended in 1 ml PBS. Trypan blue-stained cells were then counted using a modified Neubauer hemocytometer under a phase-contrast light microscope.

Assay [4] relates to HUVECs. As to the kind of experiment: Capillary tube-like formation by HUVECs on Matrigel. It is filed as cell-based, human. As to conditions: 6 hours, FIG. 7. The protocol:
In vitro Assessment using a growth factor-reduced basement membrane Matrigel matrix was carried out to evaluate capillary tube-like formation. The Matrigel was thawed at 4° C. and mixed to homogeneity. The bottom of 96-well cell culture plates were coated with a thin layer of Matrigel (40 μl) and allow the Matrigel to polymerize at 37° C. for 30 minutes. HUVECs were resuspended in M199 medium containing 1% serum to a density of 2.5×10^4 cells/100 μl, mixed with 100 μl of M199 medium containing 1% serum and 100 μl CM from either C33A/neo or C33A/IL-6 cells treated in various ways, and finally plated onto the Matrigel-coated surface. Six hours later, cells were fixed in 4% paraformaldehyde and stained with 0.1% crystal violet. Three microscopic fields were selected at random and photographed, and the number of tube-like structures per field was determined to get the result shown in FIG. 7.

Assay [5] deals with IL-6-induced angiogenesis. As to the kind of experiment: Matrigel plug assay, hemoglobin level. The class given is in vivo. As to conditions: BALB/c nude mice; plugs recovered after 7 days; FIG. 8. As for the experimental part: On the other hand, Matrigel plug assay was performed to analyze the inhibiting effect on IL-6-induced angiogenesis of peptide S7. Matrigel (500 μl) containing CM from cells treated in various ways was […] into 4- to 8-week-old female BALB/c nude mice at sites lateral to the abdominal midline. Aforementioned CM was obtained either from vector control cells or from IL-6 overexpressed C33A cells in the presence or absence of peptide S7. The Matrigel plugs were recovered after 7 days of implementation, dissolved in PBS, and incubated at 4° C. overnight. Hemoglobin levels were determined using Drabkin's solution (Sigma Chemical) according to the manufacturer's instructions to get the result shown in FIG. 8.

Another assay relates to C33A/IL-6 cells. Put plainly: Tumor growth inhibition in SCID mice injected with C33A/IL-6 cells. The class given is in vivo. Conditions: 50 mg/kg i.p. every 2 days, FIG. 9. As for the experimental part: Six- to 8-week-old female severe combined immunodeficient (SCID) mice were […] with 1×10^6 C33A/neo or C33A/IL-6 cells. Beginning 3 days later, S1 or S7 peptide (50 mg/kg, dissolved in PBS) was injected i.p. every 2 days. Tumor development was followed in measurements of length (L) and width (W).

Where no end group is shown, it is not given here.

In the case of LSLITRL [peptide S7], the “antagonism of the binding of IL-6 to IL-6Rα in different cell lines” value in assay [1] is recorded as “antagonize the binding”. Further, in assay [2], the “inhibition of IL-6-induced phosphorylated Akt level” value is “significantly inhibited” and the “inhibition of IL-6-induced phosphorylated ERK1/2 MAPK level” value was “significantly inhibited”. Moreover, the “IL-6-induced up-regulation of Mcl-1 protein” value with Mcl-1 protein is given as “antagonized”. Besides, the “IL-6-mediated VEGF-A secretion” value in the assay on VEGF-A was “significantly decreased”. Also, the “IL-6-CM induced HUVECs proliferation” value with HUVECs [3] is on record as “greatly attenuated”. Besides, the “C33A/IL-6-CM induced tube-like cell cord formation” value in the assay on HUVECs [4] was “almost completely inhibited”. For the same substance, in assay [5], the “hemoglobin induction in Matrigel plugs containing C33A/IL-6-CM” value is given as “almost completely inhibited”. For the same substance, in the assay with C33A/IL-6 cells, the IL-6-induced tumor growth result was “significantly reduced”. Also, in the assay on C33A/IL-6 cells (tumor volume), the “tumor growth inhibition at the end of the experiment” value is reported as 76%.
With “LSLMPRL [peptide S1, negative control peptide, reference compound]”, in assay [2], the “inhibition of IL-6-induced phosphorylated Akt level” value is on record as “not” and the “inhibition of IL-6-induced phosphorylated ERK1/2 MAPK level” value is given as “not”. In addition, the “IL-6-CM induced HUVECs proliferation” value in the assay on HUVECs [3] is given as “not”.

(Values after US7202218B2, “Oligopeptide antagonist of interleukin-6” (National Taiwan University, priority 2005, dated 2007).)
